Laboratory results from patent publication US20110135634A1, “METHODS OF INHIBITING INFECTION BY DIVERSE SUBTYPES OF DRUG-RESISTANT HIV-1” (priority 2007, published 2011).

How the values were obtained:
[1] = target: T1, CCR5 on CEM.NKR-CCR5 cells (Homo sapiens, UniProt P51681); experiment: Competition binding: inhibition of PRO 140-PE binding; settings: CEM.NKR-CCR5 cells, flow cytometry
T1 construct: host or cells: CEM.NKR-CCR5 (transduced human T cell leukemia line)
Procedure: Azide was added to block CCR5 internalization during the assay.

[2] = tested on: reporter viruses pseudotyped with HIV-1SF162 envelope (U87-CD4-CCR5 cells); experiment: HIV-1 pseudovirus assay, SF162 envelope; assay type: cell-based; settings: HIV-1 envelope SF162, 1st inhibitor alone
Description: A self-inactivating (SIN) vector was derived from the pNL4-3ΔEnv-luciferase vector (Dragic et al. 1996) by deleting 507 basepairs in the U3 region of the 3′ long terminal repeat (LTR) so as to remove the TATA box and transcription factor binding sites. The human cytomegalovirus promoter was inserted upstream of the luciferase (luc) gene to enable expression of luciferase following integration.
Reporter viruses pseudotyped with HIV-1JR-FL or HIV-1SF162 envelopes were generated by cotransfection of 293T cells with the SIN vector and the appropriate pcDNA env-expressing vector as previously described (Dragic et al. 1996). […] Cultures were incubated for 72 h at 37° C. in DMEM containing 10% fetal bovine serum, […] puromycin, 0.3 mg/mL geneticin, antibiotics, and 0.5% DMSO. Luciferase activity (relative light units or RLU) was measured using. BrightGlo reagent (Promega, Madison, Wis.) according to the manufacturer's instructions.
Experimental design and data analysis were based on the combination index (CI) method (Chou et al. 1991; Chou et al. 1984). […] The mutually exclusive CI formula was used for combinations of CCR5 inhibitors, while the mutually non-exclusive formula was utilized for combinations of inhibitors to distinct targets (Chou et al. 1991). Each test was conducted 4-12 times. Synergy, additivity and antagonism are indicated by CI<1, CI=1 and CI>1, respectively.

HIV-1 = settings: dose-dependent, treatment period of 10-14 days; cited from earlier work
[3] = tested on: primary R5 HIV-1 isolates JR-FL and Case C 1/85 (CC1/85); experiment: In vitro resistance selection and susceptibility testing on PBMC; assay type: cell-based; settings: p24 ELISA
Procedure: For susceptibility testing, viruses were cultured in vitro on stimulated PBMC. In the presence and absence of serially diluted drug, and the extent of viral replication was determined by p24 ELISA.

[4] = tested on: reporter viruses pseudotyped with HIV-1JR-FL envelope (U87-CD4-CCR5 cells); experiment: microbe, parasite or virus in culture; assay type: cell-based; settings: HIV-1 envelope JRFL; 1st inhibitor alone; read-out: IC90
CD4 (human) = CD4 (human) (UniProt P01730); experiment: cell-based or functional assay
[5] = in vivo; cited from earlier work
[6] = single administration of TAK-652 solution, healthy male volunteers; cited from earlier work
[7] = target: HIV-1 JR-FL gp120 (HIV-1 strain JR-FL); experiment: cell-based or functional assay
[8] = target: HIV-1 SF162 gp120 (HIV-1 strain SF162) (UniProt P19550); experiment: cell-based or functional assay

T1 sequence (P51681 whole entry): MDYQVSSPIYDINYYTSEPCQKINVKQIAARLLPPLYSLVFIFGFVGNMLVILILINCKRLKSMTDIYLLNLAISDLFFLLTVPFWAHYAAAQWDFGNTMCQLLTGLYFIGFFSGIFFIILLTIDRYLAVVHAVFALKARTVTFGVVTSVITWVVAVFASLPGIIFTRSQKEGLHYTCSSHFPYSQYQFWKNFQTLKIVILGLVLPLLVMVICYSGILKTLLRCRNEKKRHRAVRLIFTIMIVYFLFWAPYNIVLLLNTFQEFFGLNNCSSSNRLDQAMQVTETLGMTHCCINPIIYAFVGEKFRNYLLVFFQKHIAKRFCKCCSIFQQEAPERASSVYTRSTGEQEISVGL

For `COC[C@@H](c1ccc(C(F)(F)F)cc1)N1CCN(C2(C)CCN(C(=O)c3c(C)ncnc3C)CC2)C[C@@H]1C` [SCH-D, 1-[(4,6-dimethyl-5-pyrimidinyl)carbonyl]-4-[4-[2-methoxy-1(R)-4-(trifluoromethyl)phenyl]ethyl-3(S)-methyl-1-piperazinyl]-4-methylpiperidine], the “inhibition of PRO 140-PE binding (in words)” value [1] was “modest levels of inhibition”, the IC50 ([2]; read-out: IC50) was 0.34 nM and the IC90 ([2]; read-out: IC90) was 14 nM. The “mean reductions in HIV-1 RNA levels” value (HIV-1) was roughly 1 log10, the “inhibition of PRO 140 escape mutants” value [3] was “efficiently inhibited” and the IC90 [4] was 44 nM.

For anti-CD4 mAb Leu-3A (antibody), the HIV-1 Env-mediated cell-cell fusion, RET assay (CD4 (human)) was 500 ng/mL.

In the case of `CCO/N=C(\c1ccc(Br)cc1)C1CCN(C2(C)CCN(C(=O)c3c(C)cc[n+]([O-])c3C)CC2)CC1` [SCH-C], the “mean reductions in HIV-1 RNA levels” value (HIV-1) is listed as roughly 1 log10.

For `CCCCOCCOc1ccc(-c2ccc3c(c2)/C=C(/C(=O)Nc2ccc([S@@+]([O-])Cc4cncn4CCC)cc2)CCCN3CC(C)C)cc1.CS(=O)(=O)O` [TAK-652], the oral bioavailability [5] is listed as “orally bioavailable” and the safety and tolerability [6] is listed as “safe and well tolerated”.

“PRO 542 (CD4-IgG2) (from UniProt P01730 26-204; P01730 26-203) (Fc fusion)” gave an IC50, HIV-1 reporter virus pseudotyped with JRFL envelope, U87-CD4-CCR5 cells [7] of 0.19 nM, an IC90, HIV-1 reporter virus pseudotyped with JRFL envelope, U87-CD4-CCR5 cells [7] of 2.9 nM and an IC50, HIV-1 reporter virus pseudotyped with SF162 envelope, U87-CD4-CCR5 cells [8] of 0.36 nM. It also gave an IC90, HIV-1 reporter virus pseudotyped with SF162 envelope, U87-CD4-CCR5 cells [8] of 7.1 nM.
